Patent US20100316673A1, “NA[…]” (priority 2009, published 2010)
“Also recorded” adds a separate entry of the source.

System: virus
Assay: Virus inactivation by detergent component versus nanoemulsion
Type: cell-based
Conditions: at concentrations equivalent to 11% X8P (BCTP)
Description: The nanoemulsions structure of the certain embodiments of the emulsions of the present invention may play a role in their biocidal activity as well as contributing to the non-toxicity of these emulsions. […] Adding the oil phase to the detergent and solvent markedly reduces the toxicity of these agents in tissue culture at the same concentrations. […] It should be noted that when all the components of X8P are combined in one composition but are not in a nanoemulsion structure, the mixture is not as effective as an antimicrobial as when the components are in a nanoemulsion structure.
Individual components of nanoemulsions (e.g. in an immunogenic composition of the present invention) can function both to inactivate a pathogen as well as to contribute to the non-toxicity of the emulsions. […] Adding the oil phase to the detergent and solvent markedly reduces the toxicity of these agents in tissue culture at the same concentrations. […] Furthermore, when all the components of BCTP are combined in one composition but are not in a nanoemulsion structure, the mixture is not as effective at inactivating a pathogen as when the components are in a nanoemulsion structure.

TRITON X-100 [TRITON-X100]
biocidal activity against virus (ability to inactivate a virus): less biocidal activity; also recorded: less ability to inactivate a virus
